From the supplement of paper PMC11451515

Columns and labels:
Conditions in all cases: 48 h
NOMO1 [1] = assay: AUC of viability dose-response curve (% viability x log10 dose units); higher = less sensitive
How it was run: (§1)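 Area under the curve was integrated by trapezoidal rule from a log-logistic fit of normalised viability, with curves exceeding full viability scaled and quality-control failures removed. The fit had four parameters over log10 doses. Viability came from CellTiter-Glo One luminescence, normalised per plate to DMSO and cell-free wells, after leukemia cells adapted to each medium (500 or 1000 cells/well, 1536-well plates) were exposed to library compounds in DMSO for 48 h at 37°C. The 11 threefold doses ran from 47 μM to 0.79 nM.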

P12-Ichikawa [2] = assay: as above
How it was run: as §1

SEM cells [3] = assay: cell viability relative to DMSO control; higher = less cytotoxic
How it was run: (§2)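 Before seeding, each leukemia line was adapted for at least four passages in each medium. NOMO1 or SEM cells (500 cells/well) and P12-Ichikawa cells (1000 cells/well) went into 1536-well plates at 5 μl, then received library compounds in DMSO by pin dosing across 11 threefold concentrations, 47 μM to 0.79 nM. Readout was CellTiter-Glo One luminescence after 48 h at 37°C, and viability is given as a per-plate percentage of DMSO wells, with cell-free wells as background.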

NOMO1 [4] = assay: as above
How it was run: as §2

P12-Ichikawa [5] = assay: as above
How it was run: as §2

SEM cells [6] = assay: AUC of viability dose-response curve (% viability x log10 dose units); higher = less sensitive
How it was run: as §1

Cc1ncc([N+](=O)[O-])n1CC(C)O (configuration not stated)
AUC of viability dose-response curve
Conditions | HPLM + 10% dialyzed FBS | RPMI 5 mM glucose + 10% FBS | RPMI 5 mM glucose + 10% dialyzed FBS
NOMO1 [1] | 467 | 465 | 459
P12-Ichikawa [2] | 467 | 462 | 463

cell viability [%]
Conditions | NOMO1 [4] | P12-Ichikawa [5] | SEM cells [3]
HPLM + 10% dialyzed FBS, 0.000781 µM | 96.1 | 105 | 60.5
HPLM + 10% dialyzed FBS, 0.00234 µM | 100 | 116 | 75.1
HPLM + 10% dialyzed FBS, 0.00702 µM | 117 | 111 | 69.3
HPLM + 10% dialyzed FBS, 0.0211 µM | 114 | 110 | 75.5
HPLM + 10% dialyzed FBS, 0.0632 µM | 119 | 105 | 57.6
HPLM + 10% dialyzed FBS, 0.19 µM | 110 | 117 | 71.4
HPLM + 10% dialyzed FBS, 0.569 µM | 111 | 114 | 91.4
HPLM + 10% dialyzed FBS, 1.71 µM | 116 | 111 | 88.1
HPLM + 10% dialyzed FBS, 5.12 µM | 117 | 116 | 81.6
HPLM + 10% dialyzed FBS, 15.4 µM | 120 | 125 | 82.8
HPLM + 10% dialyzed FBS, 46.1 µM | 108 | 103 | 13.3
RPMI 5 mM glucose + 10% FBS, 0.000781 µM | 100 | 94.3 | 78.9
RPMI 5 mM glucose + 10% FBS, 0.00234 µM | 123 | 109 | 99.3
RPMI 5 mM glucose + 10% FBS, 0.00702 µM | 106 | 101 | 89.4
RPMI 5 mM glucose + 10% FBS, 0.0211 µM | 106 | 104 | 99.8
RPMI 5 mM glucose + 10% FBS, 0.0632 µM | 113 | 90.4 | 64.6
RPMI 5 mM glucose + 10% FBS, 0.19 µM | 118 | 113 | 97.8
RPMI 5 mM glucose + 10% FBS, 0.569 µM | 132 | 105 | 102
RPMI 5 mM glucose + 10% FBS, 1.71 µM | 117 | 115 | 110
RPMI 5 mM glucose + 10% FBS, 5.12 µM | 117 | 104 | 96.2
RPMI 5 mM glucose + 10% FBS, 15.4 µM | 105 | 106 | 101
RPMI 5 mM glucose + 10% FBS, 46.1 µM | 113 | 102 | 14.8
RPMI 5 mM glucose + 10% dialyzed FBS, 0.000781 µM | 101 | 102 | 84.2
RPMI 5 mM glucose + 10% dialyzed FBS, 0.00234 µM | 107 | 112 | 101
RPMI 5 mM glucose + 10% dialyzed FBS, 0.00702 µM | 95.3 | 106 | 98.4
RPMI 5 mM glucose + 10% dialyzed FBS, 0.0211 µM | 96.4 | 104 | 99.3
RPMI 5 mM glucose + 10% dialyzed FBS, 0.0632 µM | 113 | 95.2 | 84.6
RPMI 5 mM glucose + 10% dialyzed FBS, 0.19 µM | 116 | 112 | 104
RPMI 5 mM glucose + 10% dialyzed FBS, 0.569 µM | 110 | 117 | 118
RPMI 5 mM glucose + 10% dialyzed FBS, 1.71 µM | 110 | 113 | 119
RPMI 5 mM glucose + 10% dialyzed FBS, 5.12 µM | 115 | 111 | 110
RPMI 5 mM glucose + 10% dialyzed FBS, 15.4 µM | 115 | 106 | 99.6
RPMI 5 mM glucose + 10% dialyzed FBS, 46.1 µM | 101 | 106 | 14

O=c1oc2c(O)c(O)cc3c(=O)oc4c(O)c(O)cc1c4c23
AUC of viability dose-response curve
Conditions | NOMO1 [1] | P12-Ichikawa [2] | SEM cells [6]
HPLM + 10% dialyzed FBS | 455 | 444 | 471
RPMI 5 mM glucose + 10% FBS | 454 | 452 | 467
RPMI 5 mM glucose + 10% dialyzed FBS | 466 | 458 | 451

C=C1C(=O)OC2/C=C(/C)CC/C=C(/C)CCC12 (configuration not stated)
AUC of viability dose-response curve
Conditions | NOMO1 [1] | P12-Ichikawa [2] | SEM cells [6]
HPLM + 10% dialyzed FBS | 444 | 454 | 455
RPMI 5 mM glucose + 10% FBS | 463 | 442 | 449
RPMI 5 mM glucose + 10% dialyzed FBS | 457 | 448 | 446

CC(=O)[C@]1(O)Cc2c(O)c3c(c(O)c2[C@@H](O[C@H]2C[C@H](N)[C@H](O)[C@H](C)O2)C1)C(=O)c1ccccc1C3=O
AUC of viability dose-response curve
Conditions | HPLM + 10% dialyzed FBS | RPMI 5 mM glucose + 10% FBS | RPMI 5 mM glucose + 10% dialyzed FBS
NOMO1 [1] | 364 | 367 | 374
SEM cells [6] | 320 | 313 | 313

cell viability [%], SEM cells [3]
Conditions | HPLM + 10% dialyzed FBS | RPMI 5 mM glucose + 10% FBS | RPMI 5 mM glucose + 10% dialyzed FBS
0.000781 µM | 118 | 104 | 126
0.00234 µM | 127 | 117 | 110
0.00702 µM | 123 | 113 | 116
0.0211 µM | 124 | 104 | 125
0.0632 µM | 128 | 97.8 | 113
0.19 µM | 119 | 101 | 97.1
0.569 µM | 98.8 | 80.3 | 90.3
1.71 µM | 34.5 | 18.9 | 31.2
5.12 µM | 8.24 | 7.45 | 6.01
15.4 µM | 7.58 | 6.93 | 5.83
46.1 µM | 6.23 | 4.81 | 4.8

C[S+](=O)([O-])CCNCc1ccc(-c2ccc3ncnc(Nc4ccc(OCc5cccc(F)c5)c(Cl)c4)c3c2)o1
AUC of viability dose-response curve
Conditions | NOMO1 [1] | P12-Ichikawa [2] | SEM cells [6]
HPLM + 10% dialyzed FBS | 456 | 448 | 442
RPMI 5 mM glucose + 10% FBS | 451 | 453 | 418
RPMI 5 mM glucose + 10% dialyzed FBS | 444 | 429 | 440

C[C@H]1O[C@H]([C@H](O)[C@@H]1O)N2\C=C(F)/C(=O)NC2=O
AUC of viability dose-response curve
Conditions | NOMO1 [1] | P12-Ichikawa [2] | SEM cells [6]
HPLM + 10% dialyzed FBS | 441 | 443 | 460
RPMI 5 mM glucose + 10% FBS | 460 | 440 | 454
RPMI 5 mM glucose + 10% dialyzed FBS | 444 | 442 | 436

Cn1cc(-c2ccc(F)c(C(F)(F)F)c2)nc1C1CCN(c2ncnc3[nH]ncc23)CC1
AUC of viability dose-response curve
Conditions | NOMO1 [1] | P12-Ichikawa [2] | SEM cells [6]
HPLM + 10% dialyzed FBS | 447 | 463 | 441
RPMI 5 mM glucose + 10% FBS | 447 | 444 | 461
RPMI 5 mM glucose + 10% dialyzed FBS | 435 | 446 | 449

COC(=O)N1CC2(CC2)C[C@H](C(=O)NO)[C@H]1C(=O)N1CCN(c2ccccc2)CC1
AUC of viability dose-response curve
Conditions | HPLM + 10% dialyzed FBS | RPMI 5 mM glucose + 10% FBS | RPMI 5 mM glucose + 10% dialyzed FBS
NOMO1 [1] | 297 | 310 | 373
P12-Ichikawa [2] | 290 | 357 | 324

cell viability [%]
Conditions | P12-Ichikawa [5] | SEM cells [3]
HPLM + 10% dialyzed FBS, 0.000781 µM | 122 | 110
HPLM + 10% dialyzed FBS, 0.00234 µM | 133 | 128
HPLM + 10% dialyzed FBS, 0.00702 µM | 119 | 123
HPLM + 10% dialyzed FBS, 0.0211 µM | 125 | 116
HPLM + 10% dialyzed FBS, 0.0632 µM | 117 | 128
HPLM + 10% dialyzed FBS, 0.19 µM | 114 | 121
HPLM + 10% dialyzed FBS, 0.569 µM | 24.5 | 113
HPLM + 10% dialyzed FBS, 1.71 µM | 30.1 | 40.3
HPLM + 10% dialyzed FBS, 5.12 µM | 16.7 | 19.8
HPLM + 10% dialyzed FBS, 15.4 µM | 10.6 | 16.5
HPLM + 10% dialyzed FBS, 46.1 µM | 7.08 | 6.78
RPMI 5 mM glucose + 10% FBS, 0.000781 µM | 121 | –
RPMI 5 mM glucose + 10% FBS, 0.00234 µM | 132 | –
RPMI 5 mM glucose + 10% FBS, 0.00702 µM | 119 | –
RPMI 5 mM glucose + 10% FBS, 0.0211 µM | 129 | –
RPMI 5 mM glucose + 10% FBS, 0.0632 µM | 136 | –
RPMI 5 mM glucose + 10% FBS, 0.19 µM | 143 | –
RPMI 5 mM glucose + 10% FBS, 0.569 µM | 122 | –
RPMI 5 mM glucose + 10% FBS, 1.71 µM | 99.6 | –
RPMI 5 mM glucose + 10% FBS, 5.12 µM | 14.2 | –
RPMI 5 mM glucose + 10% FBS, 15.4 µM | 9.97 | –
RPMI 5 mM glucose + 10% FBS, 46.1 µM | 7.58 | –

COc1ccc2c(c1OC)C(=O)O[C@H]2[C@H]1c2c(cc3c(c2OC)OCO3)CCN1C
AUC of viability dose-response curve
Conditions | NOMO1 [1] | P12-Ichikawa [2] | SEM cells [6]
HPLM + 10% dialyzed FBS | 246 | 284 | 263
RPMI 5 mM glucose + 10% FBS | 273 | 277 | 233
RPMI 5 mM glucose + 10% dialyzed FBS | 277 | 294 | 247
